For 18 molecules, IC50 results are on record in the Kinase Knowledgebase extract (Sharma et al. 2016).

The test addresses MAPK14 (murine). Nature of the test: Inhibition of MAPK14 Kinase Activity.
`Cc1nc2cc(Cl)c(C(=O)c3ccc(Nc4ccc(F)cc4F)cc3)cc2[nH]1` displayed an IC50 of 0.7 nM.
The figure for `Cc1nc2cc(Cl)c(C(=O)c3ccc(Nc4ccc(F)cc4F)nc3)cc2[nH]1` is 8 nM; for `COc1ccccc1C(=O)c1ccc(Nc2ccc(F)cc2F)cc1` it is 38 nM.
The figure for `CC(C)(N)C#Cc1ccc(Cl)c(C(=O)c2ccc(Nc3ccc(F)cc3F)nc2)c1` is 19 nM.
The figure for `COc1cc2nc(C)[nH]c2cc1C(=O)c1ccc(Nc2ccc(F)cc2F)nc1` is 21 nM; for `COc1ccc(CCC2(O)CCN(C)CC2)cc1C(=O)c1ccc(Nc2ccc(F)cc2F)cc1` it is 51 nM.
On to `COc1ccc(CCC(C)(C)O)cc1C(=O)c1ccc(Nc2ccc(F)cc2F)nc1`, for which the half-maximal inhibitory concentration (IC50) worked out at 479 nM.
As for `CC(C)(N)CCc1ccc(Cl)c(C(=O)c2ccc(Nc3ccc(F)cc3F)nc2)c1`, the figure is 160 nM; as for `COc1cc2nc(C)[nH]c2cc1C(=O)c1ccc(Nc2ccc(F)cc2F)cc1`, 5 nM.
The figure for `COc1ccc(/C=C/C2(O)CCN(C)CC2)cc1C(=O)c1ccc(Nc2ccc(F)cc2F)cc1` is 1 nM; for `CC(C)(N)C#Cc1ccc(Cl)c(C(=O)c2ccc(Nc3ccc(F)cc3F)cc2)c1` it is 6 nM; for `O=C(c1ccc(Nc2ccc(F)cc2F)nc1)c1cc(Br)ccc1Cl` it is 300 nM.
As for `COc1ccc(CCC(C)(C)N)cc1C(=O)c1ccc(Nc2ccc(F)cc2F)cc1`, the figure is 113 nM; as for `O=C(c1ccc(Nc2ccc(F)cc2F)cc1)c1ccccc1Cl`, 11 nM.
For `COc1ccc(C#CC(C)(C)N)cc1C(=O)c1ccc(Nc2ccc(F)cc2F)cc1`, the IC50 is 14 nM.
`O=C(c1ccc(Nc2ccc(F)cc2F)nc1)c1ccccc1Cl` showed a concentration for half-maximal inhibition (IC50) of 101 nM.
The figure for `COc1ccc(C#CC(C)(C)N)cc1C(=O)c1ccc(Nc2ccc(F)cc2F)nc1` is 8 nM; for `COc1ccc(C#CC(C)(C)O)cc1C(=O)c1ccc(Nc2ccc(F)cc2F)nc1` it is 54 nM.
